Experimental data: patent US9334289B2, “Cephem compound having catechol or pseudo-catechol structure” (SHIONOGI & CO., LTD., priority 2011, dated 2016)
≈ marks a conversion by molar mass, not a printed value.

Assays:
Assay type in all cases: cell-based
E. coli ATCCBAA-200 [1] = assay: MIC, CLSI broth microdilution, Test Example 1; conditions: Escherichia coli, ATCCBAA200; SHV-4 ESBL producing strain; cation-adjusted Mueller Hinton broth containing human apo-transferrin; 5×10^5 cfu/mL; read-out: Minimum Inhibitory Concentration (MIC) E. coli ATCC BAA-200
Procedure: (§1) Measurement of Minimum Inhibitory Concentration (MIC: μg/mL) was conducted according to CLSI (Clinical and Laboratory Standards Institute) method, and the amount of bacteria for inoculation was 5×10^5 cfu/mL, and cation-adjusted Mueller Hinton broth containing human apo-transferrin was used as a test medium, and the experiment was conducted using broth microdilution method. The bacteria used are listed below.

A. baumannii SR27323 = assay: MIC, CLSI broth microdilution, Test Example 1; conditions: Acinetobacter baumannii, SR27323; OXA-23, OXA-58 carbapenemase producing strain; cation-adjusted Mueller Hinton broth containing human apo-transferrin; 5×10^5 cfu/mL; read-out: Minimum Inhibitory Concentration (MIC) A. baumannii SR27323
Procedure: as §1

[2] = test system: K. pneumoniae ATCCBAA-1705; assay: MIC, CLSI broth microdilution, Test Example 1; conditions: Klebsiella pneumoniae, ATCCBAA1705; KPC-2 carbapenemase producing strain; cation-adjusted Mueller Hinton broth containing human apo-transferrin; 5×10^5 cfu/mL; read-out: Minimum Inhibitory Concentration (MIC) K. pneumoniae ATCCBAA-1705
Procedure: as §1

P. aeruginosa SR24837 = assay: MIC, CLSI broth microdilution, Test Example 1; conditions: Pseudomonas aeruginosa, SR24837; PER-1 ESBL producing strain; cation-adjusted Mueller Hinton broth containing human apo-transferrin; 5×10^5 cfu/mL; read-out: Minimum Inhibitory Concentration (MIC) P. aeruginosa SR24837
Procedure: as §1

E. coli ATCCBAA-199 = assay: MIC, CLSI broth microdilution, Test Example 1; conditions: Escherichia coli, ATCCBAA199; SHV-3 ESBL producing strain; cation-adjusted Mueller Hinton broth containing human apo-transferrin; 5×10^5 cfu/mL; read-out: Minimum Inhibitory Concentration (MIC) E. coli ATCC BAA-199
Procedure: as §1

P. aeruginosa SR27060 = assay: MIC, CLSI broth microdilution, Test Example 1; conditions: Pseudomonas aeruginosa, SR27060; IMP-1 MBL producing strain (carbapenem resistance strain); cation-adjusted Mueller Hinton broth containing human apo-transferrin; 5×10^5 cfu/mL; read-out: Minimum Inhibitory Concentration (MIC) P. aeruginosa SR27060
Procedure: as §1

P. aeruginosa SR24 = assay: MIC, CLSI broth microdilution, Test Example 1; conditions: Pseudomonas aeruginosa, SR24; Ceftazidime resistance strain; cation-adjusted Mueller Hinton broth containing human apo-transferrin; 5×10^5 cfu/mL; read-out: Minimum Inhibitory Concentration (MIC) P. aeruginosa SR24
K. pneumoniae ATCC700603 = assay: MIC, CLSI broth microdilution, Test Example 2; conditions: Klebsiella pneumoniae, ATCC700603; SHV18 ESBL producing strain; cation-adjusted Iso-Sensitest broth containing human Apo-transferrin; 5×10^5 cfu/mL; read-out: Minimum Inhibitory Concentration (MIC) K. pneumoniae ATCC 700603
Procedure, shortened: (§2)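 MIC values (μg/mL) come from CLSI broth microdilution. The medium is cation-adjusted Iso-Sensitest broth with human Apo-transferrin added, inoculated at 5×10^5 cfu/mL.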

E. coli ATCCBAA-196 = assay: MIC, CLSI broth microdilution, Test Example 2; conditions: Escherichia coli, ATCCBAA196; TEM-10 ESBL producing strain; cation-adjusted Iso-Sensitest broth containing human Apo-transferrin; 5×10^5 cfu/mL; read-out: Minimum Inhibitory Concentration (MIC) E. coli ATCC BAA-196
Procedure, shortened: as §2

E. coli SR01337 = assay: MIC, CLSI broth microdilution, Test Example 2; conditions: Escherichia coli, SR01337; TEM-1 ESBL producing strain; cation-adjusted Iso-Sensitest broth containing human Apo-transferrin; 5×10^5 cfu/mL; read-out: Minimum Inhibitory Concentration (MIC) E. coli SR01337
Procedure, shortened: as §2

E. coli ATCCBAA-200 [3] = assay: MIC, CLSI broth microdilution, Test Example 2; conditions: Escherichia coli, ATCCBAA200; SHV-4 ESBL producing strain; cation-adjusted Iso-Sensitest broth containing human Apo-transferrin; 5×10^5 cfu/mL; read-out: Minimum Inhibitory Concentration (MIC) E. coli ATCC BAA-200
Procedure, shortened: as §2

P. aeruginosa SR01335 = assay: MIC, CLSI broth microdilution, Test Example 2; conditions: Pseudomonas aeruginosa, SR01335; VIM-1 like MBL producing strain (carbapenem resistance strain); cation-adjusted Iso-Sensitest broth containing human Apo-transferrin; 5×10^5 cfu/mL; read-out: Minimum Inhibitory Concentration (MIC) P. aeruginosa SR01335
Procedure, shortened: as §2

P. aeruginosa SR01332 = assay: MIC, CLSI broth microdilution, Test Example 2; conditions: Pseudomonas aeruginosa, SR01332; VIM-11 MBL producing strain (carbapenem resistance strain); cation-adjusted Iso-Sensitest broth containing human Apo-transferrin; 5×10^5 cfu/mL; read-out: Minimum Inhibitory Concentration (MIC) P. aeruginosa SR01332
Procedure, shortened: as §2

E. cloacae NCTC13464 = assay: MIC, CLSI broth microdilution, Test Example 2; conditions: Enterobacter cloacae, NCTC13464; CTX-M group 9 ESBL producing strain; cation-adjusted Iso-Sensitest broth containing human Apo-transferrin; 5×10^5 cfu/mL; read-out: Minimum Inhibitory Concentration (MIC) E. cloacae NCTC 13464
Procedure, shortened: as §2

A. baumannii SR01331 = assay: MIC, CLSI broth microdilution, Test Example 2; conditions: Acinetobacter baumannii, SR01331; PER-1, OXA-23.51 ESBL- & OXA-type carbapenemase producing strain; cation-adjusted Iso-Sensitest broth containing human Apo-transferrin; 5×10^5 cfu/mL; read-out: Minimum Inhibitory Concentration (MIC) A. baumannii SR01331
Procedure, shortened: as §2

Compound	MIC (E. coli ATCCBAA-200 [1])	MIC (A. baumannii SR27323)	MIC [2]	MIC (P. aeruginosa SR24837)	MIC (E. coli ATCCBAA-199)	MIC (P. aeruginosa SR27060)	MIC (P. aeruginosa SR24)	MIC (K. pneumoniae ATCC700603)	MIC (E. coli ATCCBAA-196)	MIC (E. coli SR01337)	MIC (E. coli ATCCBAA-200 [3])	MIC (P. aeruginosa SR01335)	MIC (P. aeruginosa SR01332)	MIC (E. cloacae NCTC13464)	MIC (A. baumannii SR01331)
CC(C)(O/N=C(\C(=O)N[C@@H]1C(=O)N2C(c3nnn[nH]3)=C(C[n+]3cccc4c3CCCN4C(=O)c3ccc(O)c(O)c3Cl)CS[C@H]12)c1csc(N)n1)C(=O)[O-] [Compound I-75]	0.5 µg/mL (≈ 0.628 µM)	1 µg/mL (≈ 1.26 µM)	0.063 µg/mL (≈ 0.0791 µM)	0.063 µg/mL (≈ 0.0791 µM)	0.125 µg/mL (≈ 0.157 µM)	0.25 µg/mL (≈ 0.314 µM)	0.063 µg/mL (≈ 0.0791 µM)								
CC(C)(O/N=C(\C(=O)N[C@@H]1C(=O)N2C(c3nn[n-]n3)=C(C[N+]3(Cc4nnc(-c5ccc(O)c(O)c5Cl)o4)CCCC3)CS[C@H]12)c1csc(N)n1)C(=O)[O-].[Na+] [Compound I-45]	0.25 µg/mL	0.25 µg/mL	≤ 0.031 µg/mL	0.5 µg/mL	0.125 µg/mL	0.5 µg/mL	0.125 µg/mL								
CC(C)(O/N=C(\C(=O)N[C@@H]1C(=O)N2C(c3nn[n-]n3)=C(C[N+]3(Cc4nc(-c5ccc(O)c(O)c5Cl)no4)CCCC3)CS[C@H]12)c1csc(N)n1)C(=O)[O-].[Na+] [Compound I-46]	0.5 µg/mL	0.5 µg/mL	≤ 0.031 µg/mL	1 µg/mL	0.125 µg/mL	0.5 µg/mL	0.25 µg/mL								
CC(C)(O/N=C(\C(=O)N[C@@H]1C(=O)N2C(c3nnn[n-]3)=C(C[N+]3(CCNC(=O)c4ccc(O)c(O)c4Cl)CCCC3)CS[C@H]12)c1nc(N)sc1Cl)C(=O)[O-].[Na+] [Compound I-88]	0.125 µg/mL	0.5 µg/mL	0.063 µg/mL	≤ 0.031 µg/mL	0.063 µg/mL	0.5 µg/mL	0.063 µg/mL								
CC(C)(O/N=C(\C(=O)N[C@@H]1C(=O)N2C(c3nnn[n-]3)=C(C[N+]34CCCC3(CNC(=O)c3ccc(O)c(O)c3Cl)CCC4)CS[C@H]12)c1cnc(N)s1)C(=O)[O-].[Na+] (stereo partly shown) [Compound I-80]	1 µg/mL	2 µg/mL	≤ 0.031 µg/mL	0.125 µg/mL	0.5 µg/mL	0.25 µg/mL	≤ 0.031 µg/mL								
CC(C)(O/N=C(\C(=O)N[C@@H]1C(=O)N2C(c3nnn[n-]3)=C(C[N+]3(CCNC(=O)c4cc(O)c(O)cc4Cl)CCCC3)CS[C@H]12)c1csc(N)n1)C(=O)[O-].[Na+] [Compound I-50]	0.5 µg/mL	1 µg/mL	≤ 0.031 µg/mL	2 µg/mL	0.25 µg/mL	1 µg/mL	0.25 µg/mL								
CC(C)(O/N=C(\C(=O)N[C@@H]1C(=O)N2C(c3nnn[n-]3)=C(Cn3cc4ccc(CNC(=O)c5ccc(O)c(O)c5Cl)c[n+]4c3)CS[C@H]12)c1csc(N)n1)C(=O)[O-].[Na+] [Compound I-58]	0.5 µg/mL	1 µg/mL	≤ 0.031 µg/mL	0.5 µg/mL	0.25 µg/mL	0.5 µg/mL	0.125 µg/mL								
CC(C)(O/N=C(\C(=O)N[C@@H]1C(=O)N2C(c3nnn[n-]3)=C(C[N+]3(CCNC(=O)c4cc(O)c(O)cc4F)CCCC3)CS[C@H]12)c1csc(N)n1)C(=O)[O-].[Na+] [Compound I-55]	1 µg/mL	2 µg/mL	≤ 0.031 µg/mL	0.5 µg/mL	0.25 µg/mL	1 µg/mL	0.25 µg/mL								
CC(C)(O/N=C(\C(=O)N[C@@H]1C(=O)N2C(c3nnn[n-]3)=C(C[n+]3ccc(NC(=O)c4ccc(O)c(O)c4Cl)cc3)CS[C@H]12)c1csc(N)n1)C(=O)[O-].[Na+] [Compound I-15]	0.25 µg/mL	≤ 0.031 µg/mL	≤ 0.031 µg/mL	≤ 0.031 µg/mL	0.063 µg/mL	0.5 µg/mL	0.125 µg/mL								
CC(C)(O/N=C(\C(=O)N[C@@H]1C(=O)N2C(c3nnn[nH]3)=C(C[n+]3cccc4c(NC(=O)c5ccc(O)c(O)c5Cl)cccc43)CS[C@H]12)c1csc(N)n1)C(=O)[O-] [Compound I-76]	0.5 µg/mL (≈ 0.62 µM)	0.5 µg/mL (≈ 0.62 µM)	≤ 0.031 µg/mL	0.125 µg/mL (≈ 0.155 µM)	0.25 µg/mL (≈ 0.31 µM)	0.5 µg/mL (≈ 0.62 µM)	0.125 µg/mL (≈ 0.155 µM)								
CC(C)(O/N=C(\C(=O)N[C@@H]1C(=O)N2C(c3nnn[n-]3)=C(C[n+]3ccc(NC(=O)c4ccc(O)c(O)c4Cl)cc3)CS[C@H]12)c1nc(N)sc1Cl)C(=O)[O-].[Na+] [Compound I-36]								0.5 µg/mL	≤ 0.031 µg/mL	≤ 0.031 µg/mL	0.25 µg/mL	4 µg/mL	0.5 µg/mL	0.125 µg/mL	0.5 µg/mL
CC(C)(O/N=C(\C(=O)N[C@@H]1C(=O)N2C(c3nnn[nH]3)=C(C[N+]34CCCC3CN(C(=O)c3cc(O)c(O)c(Cl)c3)CC4)CS[C@H]12)c1nsc(N)n1)C(=O)[O-] (stereo partly shown) [Compound I-122]								0.125 µg/mL (≈ 0.158 µM)	0.125 µg/mL (≈ 0.158 µM)	≤ 0.031 µg/mL	0.25 µg/mL (≈ 0.317 µM)	1 µg/mL (≈ 1.27 µM)	4 µg/mL (≈ 5.07 µM)	0.063 µg/mL (≈ 0.0798 µM)	0.25 µg/mL (≈ 0.317 µM)
C[N+]1(CC2=C(c3nnn[n-]3)N3C(=O)[C@@H](NC(=O)/C(=N\O[C@@H](CC(=O)[O-])C(=O)[O-])c4csc(N)n4)[C@H]3SC2)CCN(C(=O)c2ccc(O)c(O)c2Cl)CC1.[Na+].[Na+] [Compound I-61]								0.125 µg/mL	0.063 µg/mL	0.063 µg/mL	0.25 µg/mL	4 µg/mL	4 µg/mL	0.125 µg/mL	1 µg/mL
